The values that follow are results of earlier work, collected in patent publication US12478612B2 (CinDome Pharma, Inc., priority 2017, dated 2025).

Read-outs that look alike come from different tables or passages of the source.

The conditions of data set [1]: weak base.

With “5-chloro-1-(1-[3-(2-oxo-2,3-dihydro-1H-benzo[d]imidazol-1-yl)propyl]piperidin-4-yl)-1H-benzo[d]imidazol-2(3H)-one [Domperidone]”, the “Human plasma protein binding” value in the data set on Human plasma protein (10 ng/ml tritiated domperidone) was 91.7%; with Human plasma protein (100 ng/ml tritiated domperidone), 93.0%. Take `O=c1[nH]c2ccccc2n1CCCN1CCC(n2c(=O)[nH]c3cc(Cl)ccc32)CC1` [Domperidone, 5-chloro-1-(1-[3-(2-oxo-2,3-dihydro-1H-benzo[d]imidazol-1-yl)propyl]piperidin-4-yl)-1H-benzo[d]imidazol-2(3H)-one]: the pKa in data set [1] is recorded as 7.89.

The term pKa denotes the pH at which an ionisable group is half protonated.
